Results taken from patent US20200283807A1, “METHOD AND CELL LINE FOR PRODUCTION OF PHYTOCANNABINOIDS AND PHYTOC[…] IN YEAST” (Hyasynth Biologicals Inc., priority 2017, published 2020).

What was measured:
S. cerevisiae [1] = assay: Effect of hexanoic acid on growth of S. cerevisiae strain HB13 (A600 of culture); type: cell-based, Saccharomyces cerevisiae; details: for growth (A600): HB13-HA, 0.5 mM hexanoic acid
Method: (§1) Yeast cultures were grown in overnight cultures with selective media to provide starter cultures. The resulting starter cultures were then used to inoculate triplicate 50 ml cultures to an optical density at having an absorption at 600 nm (“A600”) of 0.1.
HB13 was cultured in YNB+2% glucose+1.6 g/L 4DO*+0.5 mM hexanoic acid. Hexanoic acid was added at 36 hours of culture. The hexanoic acid was added to separate culture samples at concentrations of 0, 0.5, 1.0 and 3.0 mM. Hexanoic acid is toxic to S. cerevisiae. […] The magnitude of the decrease in S. cerevisiae growth corresponds to the concentration of hexanoic acid in the growth media. The A600 value of culture suspensions quantifies the growth rate, which is shown at hexanoic acid concentrations of 0, 0.5, 1.0 and 3.0 mM in FIG. 12.
(§2) In the presence of 0.5 mM hexanoic acid, HB13 and HB37 were grown for 96 hours with samples taken at the 24h, 36h, 48h, 60, 72h, 84h and 96h points. In the absence of hexanoic acid, HB13 and HB84 were grown and a single time point was taken at 72 hours. HB13 was used as a control in both experiments. The growth media are described above in relation to Tables 8 and 9.

S. cerevisiae [2] = assay: Growth of S. cerevisiae strain HB37 in the presence of hexanoic acid (A600 of culture); type: cell-based, Saccharomyces cerevisiae; details: HB37-HA, 0.5 mM hexanoic acid
Method: as §1, §2
FIGS. 13 to 15 each show the A600 values of the HB37 culture listed in Table 10 (dashed lines with triangle data points).

CCCCCC(=O)O [hexanoic acid]
growth (A600) (S. cerevisiae [1]; 24 h): 5.33
growth (A600) (S. cerevisiae [1]; 36 h): 5.80
growth (A600) (S. cerevisiae [1]; 48 h): 4.67
growth (A600) (S. cerevisiae [1]; 60 h): 6.07
growth (A600) (S. cerevisiae [1]; 72 h): 8.96
growth (A600) (S. cerevisiae [1]; 84 h): 7.23
growth (A600) (S. cerevisiae [1]; 96 h): 8.28
effect of hexanoic acid supplementation on growth of S. cerevisiae (A600) (S. cerevisiae [1]; HB13, hexanoic acid added at 36 hours at 0, 0.5, 1.0 and 3.0 mM, FIG. 12): Decreased growth
growth (A600) (S. cerevisiae [2]; 24 h): 3.33
growth (A600) (S. cerevisiae [2]; 36 h): 3.43
growth (A600) (S. cerevisiae [2]; 48 h): 3.33
growth (A600) (S. cerevisiae [2]; 60 h): 3.53
growth (A600) (S. cerevisiae [2]; 72 h): 4.48
growth (A600) (S. cerevisiae [2]; 84 h): 4.13
growth (A600) (S. cerevisiae [2]; 96 h): 4.33
